Here are results for two compounds from publication PMC3639963, “A New Class of Small Molecule Inhibitor of BMP Signaling” (PLoS ONE, 2013).

Experiment in all cases: Nanosyn kinase profiling
Holding throughout (assay type): biochemical
Settings in all cases: read-out: Percentage inhibition; for inhibition at 0.1 µM: 0.1 µM inhibitor; for inhibition at 1 µM: 1 µM inhibitor

For assay [1], the target named is T1, MARK1 (Homo sapiens, UniProt Q9P0L2).
T1 construct: purchased Nanosyn (enzymatic panel); SGC in-house recombinant human kinases (DSF panel); Invitrogen (ALK1-6)
The method, boiled down: (§1)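 Percent inhibition of each kinase was measured with the inhibitor at 0.1 µM and at 1 µM, as part of a 200-kinase human selectivity panel.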

Assay [2] deals with T2, INSR (Homo sapiens, UniProt P06213).
T2 construct: purchased Nanosyn (enzymatic panel); SGC in-house recombinant human kinases (DSF panel); Invitrogen (ALK1-6)
The procedure, abridged: as §1

In assay [3] the target is T3, TYK2 (Homo sapiens, UniProt P29597).
T3 construct: purchased Nanosyn (enzymatic panel); SGC in-house recombinant human kinases (DSF panel); Invitrogen (ALK1-6)
The method, boiled down: as §1

For assay [4], the target named is T4, MAPKAPK3 (Homo sapiens, UniProt Q16644).
T4 construct: purchased Nanosyn (enzymatic panel); SGC in-house recombinant human kinases (DSF panel); Invitrogen (ALK1-6)
The method, boiled down:
as §1

Assay [5] concerns the target T5, IKK-β (Homo sapiens, UniProt O14920).
T5 construct: purchased Nanosyn (enzymatic panel); SGC in-house recombinant human kinases (DSF panel); Invitrogen (ALK1-6)
T5 sequence (O14920 1-756): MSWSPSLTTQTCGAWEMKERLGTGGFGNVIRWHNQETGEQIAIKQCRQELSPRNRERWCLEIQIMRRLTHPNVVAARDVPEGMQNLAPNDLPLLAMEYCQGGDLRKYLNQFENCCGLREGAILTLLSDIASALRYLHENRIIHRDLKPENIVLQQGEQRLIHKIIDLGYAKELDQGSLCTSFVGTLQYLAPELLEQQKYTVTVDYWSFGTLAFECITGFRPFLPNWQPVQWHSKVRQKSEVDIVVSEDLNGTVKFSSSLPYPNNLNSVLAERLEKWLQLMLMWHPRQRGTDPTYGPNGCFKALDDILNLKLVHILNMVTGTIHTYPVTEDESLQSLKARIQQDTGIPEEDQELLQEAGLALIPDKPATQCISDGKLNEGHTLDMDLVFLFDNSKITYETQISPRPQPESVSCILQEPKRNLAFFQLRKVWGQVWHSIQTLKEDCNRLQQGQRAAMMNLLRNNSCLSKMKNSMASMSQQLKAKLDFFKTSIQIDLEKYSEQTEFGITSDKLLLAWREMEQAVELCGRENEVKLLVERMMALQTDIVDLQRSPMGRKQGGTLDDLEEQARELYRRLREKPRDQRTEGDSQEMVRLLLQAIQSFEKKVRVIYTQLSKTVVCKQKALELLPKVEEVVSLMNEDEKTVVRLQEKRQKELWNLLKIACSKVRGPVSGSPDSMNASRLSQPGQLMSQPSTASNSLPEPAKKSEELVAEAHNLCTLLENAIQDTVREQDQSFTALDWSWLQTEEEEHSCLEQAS
The method, boiled down: as §1

Assay [6] concerns the target T6, FGFR2 (Homo sapiens, UniProt P21802).
T6 construct: purchased Nanosyn (enzymatic panel); SGC in-house recombinant human kinases (DSF panel); Invitrogen (ALK1-6)
The method, boiled down:
as §1

In assay [7] the target is T7, FGR (Homo sapiens, UniProt P09769).
T7 construct: purchased Nanosyn (enzymatic panel); SGC in-house recombinant human kinases (DSF panel); Invitrogen (ALK1-6)
The procedure, abridged:
as §1

The target in assay [8] is T8, KDR (Homo sapiens, UniProt P35968).
T8 construct: purchased Nanosyn (enzymatic panel); SGC in-house recombinant human kinases (DSF panel); Invitrogen (ALK1-6)
The procedure, abridged: as §1

Assay [9] deals with T9, CK1γ1 (Homo sapiens, UniProt Q9HCP0).
T9 construct: purchased Nanosyn (enzymatic panel); SGC in-house recombinant human kinases (DSF panel); Invitrogen (ALK1-6)
The method, boiled down:
as §1

In assay [10] the target is T10, TNK2 (Homo sapiens, UniProt Q07912).
T10 construct: purchased Nanosyn (enzymatic panel); SGC in-house recombinant human kinases (DSF panel); Invitrogen (ALK1-6)
The method, boiled down:
as §1

Assay [11] deals with T11, BRSK1 (Homo sapiens, UniProt Q8TDC3).
T11 construct: purchased Nanosyn (enzymatic panel); SGC in-house recombinant human kinases (DSF panel); Invitrogen (ALK1-6)
T11 sequence (Q8TDC3 1-778): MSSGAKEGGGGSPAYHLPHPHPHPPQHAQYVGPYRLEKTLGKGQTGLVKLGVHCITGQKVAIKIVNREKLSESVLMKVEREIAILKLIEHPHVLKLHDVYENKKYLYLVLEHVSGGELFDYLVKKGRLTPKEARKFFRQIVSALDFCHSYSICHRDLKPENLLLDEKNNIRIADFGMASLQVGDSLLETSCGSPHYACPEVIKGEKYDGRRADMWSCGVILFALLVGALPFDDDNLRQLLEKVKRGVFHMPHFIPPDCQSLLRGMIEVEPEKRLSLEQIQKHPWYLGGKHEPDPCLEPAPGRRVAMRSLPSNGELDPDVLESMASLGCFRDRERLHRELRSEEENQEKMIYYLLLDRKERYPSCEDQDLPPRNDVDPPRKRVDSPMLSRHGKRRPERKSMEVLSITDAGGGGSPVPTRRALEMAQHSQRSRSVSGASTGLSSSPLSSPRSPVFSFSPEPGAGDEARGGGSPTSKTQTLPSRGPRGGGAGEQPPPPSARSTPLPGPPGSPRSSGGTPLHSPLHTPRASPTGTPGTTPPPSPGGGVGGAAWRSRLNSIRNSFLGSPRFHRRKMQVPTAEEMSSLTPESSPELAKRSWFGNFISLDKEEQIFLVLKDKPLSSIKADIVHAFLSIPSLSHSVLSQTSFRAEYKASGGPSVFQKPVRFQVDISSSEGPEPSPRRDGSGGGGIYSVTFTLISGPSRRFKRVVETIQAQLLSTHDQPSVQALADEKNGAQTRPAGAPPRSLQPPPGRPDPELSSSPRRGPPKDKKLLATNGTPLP
The procedure, abridged: as §1

T1 sequence (Q9P0L2 whole entry): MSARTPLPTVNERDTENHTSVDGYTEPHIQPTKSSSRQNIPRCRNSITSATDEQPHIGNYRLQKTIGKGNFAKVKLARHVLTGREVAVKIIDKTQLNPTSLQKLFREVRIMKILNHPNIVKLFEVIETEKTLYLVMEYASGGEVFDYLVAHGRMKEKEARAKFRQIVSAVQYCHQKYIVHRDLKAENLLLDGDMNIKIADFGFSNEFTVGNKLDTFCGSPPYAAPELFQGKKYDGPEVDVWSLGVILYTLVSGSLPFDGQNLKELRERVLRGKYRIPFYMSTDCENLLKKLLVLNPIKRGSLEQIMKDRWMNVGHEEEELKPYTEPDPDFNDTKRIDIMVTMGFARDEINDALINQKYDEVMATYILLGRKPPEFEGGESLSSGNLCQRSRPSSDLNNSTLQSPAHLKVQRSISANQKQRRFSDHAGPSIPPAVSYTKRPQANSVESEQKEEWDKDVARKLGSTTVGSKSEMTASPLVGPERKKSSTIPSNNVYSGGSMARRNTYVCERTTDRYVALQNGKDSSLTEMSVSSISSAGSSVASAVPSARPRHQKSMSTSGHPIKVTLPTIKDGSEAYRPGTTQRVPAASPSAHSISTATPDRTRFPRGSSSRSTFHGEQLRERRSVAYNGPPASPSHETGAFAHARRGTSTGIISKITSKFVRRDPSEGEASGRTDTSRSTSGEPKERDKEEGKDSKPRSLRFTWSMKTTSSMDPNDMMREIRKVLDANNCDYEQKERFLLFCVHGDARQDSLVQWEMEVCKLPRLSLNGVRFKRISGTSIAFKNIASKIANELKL
T2 sequence (P06213 28-1382): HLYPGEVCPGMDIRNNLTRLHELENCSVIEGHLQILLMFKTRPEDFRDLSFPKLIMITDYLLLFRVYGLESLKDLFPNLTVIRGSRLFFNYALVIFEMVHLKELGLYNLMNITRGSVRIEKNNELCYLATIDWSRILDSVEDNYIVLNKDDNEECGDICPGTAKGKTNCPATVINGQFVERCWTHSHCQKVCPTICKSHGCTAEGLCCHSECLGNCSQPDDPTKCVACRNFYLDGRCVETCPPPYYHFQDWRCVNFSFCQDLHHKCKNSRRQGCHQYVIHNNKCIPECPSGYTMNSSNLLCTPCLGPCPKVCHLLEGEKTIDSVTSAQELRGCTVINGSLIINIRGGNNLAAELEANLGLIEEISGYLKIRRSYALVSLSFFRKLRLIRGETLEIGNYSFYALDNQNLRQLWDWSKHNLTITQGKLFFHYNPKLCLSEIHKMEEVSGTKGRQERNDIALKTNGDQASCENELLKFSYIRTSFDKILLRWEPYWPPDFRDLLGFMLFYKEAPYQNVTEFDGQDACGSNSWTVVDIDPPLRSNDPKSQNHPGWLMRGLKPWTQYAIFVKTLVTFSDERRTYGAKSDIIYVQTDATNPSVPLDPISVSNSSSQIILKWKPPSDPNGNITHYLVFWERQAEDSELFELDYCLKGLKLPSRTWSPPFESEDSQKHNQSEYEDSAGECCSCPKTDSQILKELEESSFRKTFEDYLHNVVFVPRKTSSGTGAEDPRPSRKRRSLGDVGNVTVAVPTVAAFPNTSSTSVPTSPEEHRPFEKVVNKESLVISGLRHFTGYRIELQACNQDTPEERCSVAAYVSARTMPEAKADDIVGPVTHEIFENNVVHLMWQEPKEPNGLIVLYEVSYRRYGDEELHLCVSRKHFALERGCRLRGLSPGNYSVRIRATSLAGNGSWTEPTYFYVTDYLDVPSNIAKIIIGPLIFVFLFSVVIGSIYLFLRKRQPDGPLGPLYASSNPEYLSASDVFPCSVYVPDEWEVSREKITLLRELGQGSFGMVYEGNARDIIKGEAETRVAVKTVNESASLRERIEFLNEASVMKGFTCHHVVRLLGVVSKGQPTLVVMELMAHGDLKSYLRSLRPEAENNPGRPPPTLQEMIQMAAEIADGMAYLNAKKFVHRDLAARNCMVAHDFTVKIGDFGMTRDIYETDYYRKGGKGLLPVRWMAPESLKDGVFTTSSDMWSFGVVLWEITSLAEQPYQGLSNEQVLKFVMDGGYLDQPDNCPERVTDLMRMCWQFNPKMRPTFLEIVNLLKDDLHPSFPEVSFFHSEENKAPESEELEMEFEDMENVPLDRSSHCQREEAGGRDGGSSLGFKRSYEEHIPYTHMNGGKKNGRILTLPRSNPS
T7 sequence (P09769 whole entry): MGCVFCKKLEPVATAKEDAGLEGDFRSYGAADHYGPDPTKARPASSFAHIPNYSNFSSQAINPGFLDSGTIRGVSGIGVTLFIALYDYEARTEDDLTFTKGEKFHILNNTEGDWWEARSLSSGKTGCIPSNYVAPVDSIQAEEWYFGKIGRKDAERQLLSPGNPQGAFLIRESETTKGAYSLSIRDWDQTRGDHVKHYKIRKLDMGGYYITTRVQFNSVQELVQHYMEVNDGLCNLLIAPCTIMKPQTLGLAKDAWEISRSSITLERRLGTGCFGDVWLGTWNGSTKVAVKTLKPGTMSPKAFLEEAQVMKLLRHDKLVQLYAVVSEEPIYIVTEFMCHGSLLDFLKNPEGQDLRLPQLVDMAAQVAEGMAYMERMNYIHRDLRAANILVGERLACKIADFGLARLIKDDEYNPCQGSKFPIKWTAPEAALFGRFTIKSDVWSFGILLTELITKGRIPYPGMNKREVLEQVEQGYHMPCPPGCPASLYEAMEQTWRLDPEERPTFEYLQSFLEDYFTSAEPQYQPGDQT
T4 sequence (Q16644 whole entry): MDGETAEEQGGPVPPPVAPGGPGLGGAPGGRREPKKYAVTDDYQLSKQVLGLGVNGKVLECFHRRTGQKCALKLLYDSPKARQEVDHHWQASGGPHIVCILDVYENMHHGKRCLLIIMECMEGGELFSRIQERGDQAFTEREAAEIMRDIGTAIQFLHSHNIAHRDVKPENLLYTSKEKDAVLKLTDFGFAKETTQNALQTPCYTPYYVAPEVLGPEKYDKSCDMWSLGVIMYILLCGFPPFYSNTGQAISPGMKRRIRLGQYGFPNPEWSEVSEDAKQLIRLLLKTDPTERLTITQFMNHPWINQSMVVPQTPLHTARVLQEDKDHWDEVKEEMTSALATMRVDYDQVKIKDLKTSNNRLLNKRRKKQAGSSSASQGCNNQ
T3 sequence (P29597 whole entry): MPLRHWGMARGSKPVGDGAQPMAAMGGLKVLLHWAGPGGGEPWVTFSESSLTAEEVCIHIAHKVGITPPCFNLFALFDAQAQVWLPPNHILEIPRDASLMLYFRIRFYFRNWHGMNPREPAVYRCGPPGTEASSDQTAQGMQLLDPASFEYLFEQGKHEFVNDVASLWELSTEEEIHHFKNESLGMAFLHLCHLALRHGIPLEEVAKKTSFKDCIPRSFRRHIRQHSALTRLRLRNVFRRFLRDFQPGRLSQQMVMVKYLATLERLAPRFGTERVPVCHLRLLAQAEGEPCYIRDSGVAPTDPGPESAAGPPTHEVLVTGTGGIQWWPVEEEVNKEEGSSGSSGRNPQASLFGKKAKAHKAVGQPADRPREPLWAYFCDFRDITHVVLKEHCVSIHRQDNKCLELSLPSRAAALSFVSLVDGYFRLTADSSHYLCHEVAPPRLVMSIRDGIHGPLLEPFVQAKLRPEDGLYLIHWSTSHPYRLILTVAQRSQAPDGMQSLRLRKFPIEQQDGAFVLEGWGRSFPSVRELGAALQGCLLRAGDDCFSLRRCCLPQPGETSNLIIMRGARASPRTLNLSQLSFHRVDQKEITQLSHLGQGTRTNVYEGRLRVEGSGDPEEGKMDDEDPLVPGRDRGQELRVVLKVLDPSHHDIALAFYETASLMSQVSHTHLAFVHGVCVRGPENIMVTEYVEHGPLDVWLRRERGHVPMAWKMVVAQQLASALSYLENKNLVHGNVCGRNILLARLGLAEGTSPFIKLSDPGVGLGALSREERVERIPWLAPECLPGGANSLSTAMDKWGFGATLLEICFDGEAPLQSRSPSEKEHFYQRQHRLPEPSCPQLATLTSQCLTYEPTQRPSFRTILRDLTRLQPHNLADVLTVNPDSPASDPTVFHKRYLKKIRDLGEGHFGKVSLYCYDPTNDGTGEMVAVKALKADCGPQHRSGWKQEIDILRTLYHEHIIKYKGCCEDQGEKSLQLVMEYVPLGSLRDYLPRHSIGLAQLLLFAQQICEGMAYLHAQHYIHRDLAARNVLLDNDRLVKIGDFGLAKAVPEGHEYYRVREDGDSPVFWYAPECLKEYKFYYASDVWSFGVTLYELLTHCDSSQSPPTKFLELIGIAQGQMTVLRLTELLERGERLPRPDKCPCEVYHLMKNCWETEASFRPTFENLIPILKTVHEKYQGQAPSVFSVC
T6 sequence (P21802 22-821): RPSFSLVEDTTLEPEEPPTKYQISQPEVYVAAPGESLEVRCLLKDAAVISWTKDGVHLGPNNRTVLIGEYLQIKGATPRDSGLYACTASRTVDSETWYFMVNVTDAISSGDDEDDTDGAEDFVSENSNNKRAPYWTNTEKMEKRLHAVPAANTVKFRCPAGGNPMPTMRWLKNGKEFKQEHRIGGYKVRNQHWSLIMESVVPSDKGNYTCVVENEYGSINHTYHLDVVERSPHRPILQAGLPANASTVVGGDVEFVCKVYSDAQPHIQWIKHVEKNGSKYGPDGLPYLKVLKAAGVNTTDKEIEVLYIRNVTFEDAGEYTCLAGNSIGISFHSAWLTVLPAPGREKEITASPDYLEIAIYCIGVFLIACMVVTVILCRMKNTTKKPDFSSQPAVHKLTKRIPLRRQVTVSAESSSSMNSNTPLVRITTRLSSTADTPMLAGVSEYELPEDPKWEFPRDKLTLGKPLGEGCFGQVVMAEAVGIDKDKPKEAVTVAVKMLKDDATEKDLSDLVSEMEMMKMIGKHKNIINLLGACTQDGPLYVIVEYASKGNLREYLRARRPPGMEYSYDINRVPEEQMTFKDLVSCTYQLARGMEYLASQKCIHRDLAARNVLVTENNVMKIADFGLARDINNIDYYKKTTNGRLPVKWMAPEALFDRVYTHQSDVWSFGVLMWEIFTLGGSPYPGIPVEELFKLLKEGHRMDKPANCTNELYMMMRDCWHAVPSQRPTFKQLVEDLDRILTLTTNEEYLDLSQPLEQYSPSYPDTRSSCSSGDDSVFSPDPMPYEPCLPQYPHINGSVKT

On to `COc1cc(-c2cc(-c3cccc(O)c3)cnc2N)cc(OC)c1OC` [K02288, 3-[6-amino-5-(3,4,5-trimethoxy-phenyl)-pyridin-3-yl]-phenol], for which the inhibition at 0.1 µM was 1.3% in [1]; -4% in [2]; 0% in assay [3]; -1% in [4]; -2% in assay [5]; 0.3% in assay [6]. The inhibition at 0.1 µM was 6.7% in [7]; 0.5% in assay [8]; 0% in assay [9]; 3.6% in [10]; 2.3% in [11]. The inhibition at 1 µM in assay [1] is 4.5%; in assay [2] it was 0.7%; in assay [3] it was 1.8%; in [4], -2%; in assay [5], 1.3%; in [6], 1.1%. The inhibition at 1 µM in [7] was found to be 37%; in [8], 3.9%; in assay [9], 6.1%; in assay [10], 31%; in assay [11] it was 0%.
Turning to `c1ccc2c(-c3cnn4cc(-c5ccc(N6CCNCC6)cc5)cnc34)ccnc2c1` [LDN-193189], the inhibition at 0.1 µM in assay [1] was 13%; in [2], 3.8%; in assay [3], -1%; in assay [4], 1.6%; in assay [5] it was 0.3%; in assay [6], 5%. The inhibition at 0.1 µM in assay [7] came out at 13%; in [8], 19%; in assay [9] it was 3.1%; in assay [10], 2%; in assay [11] it was 3%. Moreover, the inhibition at 1 µM in assay [1] is 62%; in assay [2], 4.5%; in assay [3], -2%; in assay [4], 0.5%; in [5], 1.4%; in [6] it was 18%. In addition, the inhibition at 1 µM in assay [7] is 53%; in assay [8], 69%; in assay [9], 14%; in assay [10], 10%; in [11], 17%.
